The values that follow come from patent publication US10888567B2, “Inhibitors of tryptophan dioxygenases (IDO1 and TDO) and their use in therapy” (AUCKLAND UNISERVICES LIMITED, priority 2014, dated 2021).

The term IC50 denotes the concentration needed to halve the response being measured.

Experiment [1] has as its target Recombinant human IDO1 (rhIDO1) (Homo sapiens (Human), UniProt P14902). The experiment can be described thus: Enzymatic assay for IDO1 activity. Type of experiment: biochemical. The note with it: rhIDO1 9 nM, 80 μM TRP, 37° C. 30 min. How it is done:
Recombinant human IDO1 (rhIDO1) was expressed and purified from cultures of EC538 strain of E. coli transformed with pREP4 and pQE9-IDO plasmid. Reaction mixes were set up in 384-well microplates containing 50 mM phosphate buffer, 10 mM ascorbic, 10 μM methylene blue, 100 μg/mL catalase, 80 μM TRP, 0.01% Tween 20 (v/v) mixed with rhIDO1 (15 μL) at a final concentration of 9 nM in a total volume of 30 μL assay medium. The plates were incubated at 37° C. for 30 min, and the enzymatic reaction was terminated by adding piperidine (200 mM) and heated at 65° C. for 20 min. Fluorescence intensity was read at λex 400 nm and λem 500 nm. Test compounds were dissolved in 100% DMSO and pre-diluted in assay medium prior to adding rhIDO1. IDO1 inhibition (%) was calculated as
[formula] All experiments were carried out in triplicates, and statistical Analyses were conducted in Prism v5 (Graphpad Software, Inc., La Jolla, Calif., USA). Cell-Based Assay for IDO1 Inhibition

Experiment [2] addresses human IDO1 (LLTC-hIDO1 cells) (Homo sapiens, UniProt P14902). Briefly: Cell-based assay for IDO1 inhibition (kynurenine in supernatant). As to conditions: IDO1-transfected Lewis Lung carcinoma cells, 24 h; read-out: Cellular IC50. How it is done:
Culture supernatant from each well was then transferred into a fresh, flat-bottomed 96-well plate, mixed with trichloroacetic acid (10% final concentration) and incubated for 20 min at 60° C. […] The absorbance of each well was read at 480 nm, and the concentration that inhibited 50% cellular enzyme activity was calculated.

Experiment [3] has as its system Lewis Lung carcinoma cells transfected to express IDO1 (LLTC-hIDO1). The experiment can be described thus: MTT cell viability in the cellular IDO1 assay. As to conditions: same experiment as cellular IDO1 assay. Type of experiment: cell-based. How it is done: The viability of the cells in each well in the same experiment was determined using the 3-(4,5-dimethylthiazolyl-2-yl)-2,5-diphenyltetrazolium bromide (MTT) colourimetric assay. After the removal of the supernatant for determination of IDO1 inhibition, the cells were incubated with MTT (500 μg/mL) until crystal formation was observed. […] DMSO (100 μL/well) was added to dissolve the crystals and then the absorbance in each well was measured at 570 nm. Cell viability in each well was expressed as a percentage of untreated controls. Triplicate cultures were used for all experiments unless stated otherwise.

The structures appear in SMILES notation.

Sequence of Recombinant human IDO1 (rhIDO1) (P14902 whole entry): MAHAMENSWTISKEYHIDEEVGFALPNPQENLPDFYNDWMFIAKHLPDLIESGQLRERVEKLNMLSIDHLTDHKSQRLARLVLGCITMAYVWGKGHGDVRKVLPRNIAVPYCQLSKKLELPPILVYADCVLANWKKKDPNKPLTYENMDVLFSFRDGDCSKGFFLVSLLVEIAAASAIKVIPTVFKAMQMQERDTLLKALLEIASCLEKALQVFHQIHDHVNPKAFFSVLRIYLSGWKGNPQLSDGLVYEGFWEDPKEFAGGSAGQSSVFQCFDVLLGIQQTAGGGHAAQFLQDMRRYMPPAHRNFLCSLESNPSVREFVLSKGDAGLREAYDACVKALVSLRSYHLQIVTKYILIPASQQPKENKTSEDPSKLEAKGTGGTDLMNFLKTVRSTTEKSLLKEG

For the compound `CSc1nc(-c2ccccc2)nc2onc(N)c12` [Compound 65, 4-(Methylthio)-6-phenylisoxazolo[5,4-d]pyrimidin-3-amine], the IC50 in experiment [1], in experiment [2] and in experiment [3] was above 100 µM each time.

In the case of `Nc1noc2nc(OCCN3CCOCC3)ccc12` [Compound 78, 6-(2-Morpholinoethoxy)isoxazolo[5,4-b]pyridin-3-amine], the IC50 in experiment [1], in experiment [2] and in experiment [3] was above 100 µM throughout.

As to `Nc1noc2nc(Cl)c(Cl)cc12` [Compound 67, 5,6-Dichloroisoxazolo[5,4-b]pyridin-3-amine], the IC50 in experiment [1] was below 1 µM; in experiment [2], 1 to 10 µM; in experiment [3], above 100 µM.

For `Cc1cc(Cl)nc2onc(N)c12` [Compound 42, 6-Chloro-4-methylisoxazolo[5,4-b]pyridin-3-amine], the IC50 in experiment [1] was below 1 µM; in experiment [2] it was below 1 µM; in experiment [3], above 100 µM.

Take `COCC#Cc1cnc2onc(N)c2c1` [Compound 69, 5-(3-Methoxyprop-1-yn-1-yl)isoxazolo[5,4-b]pyridin-3-amine]: the IC50 in experiment [1] was above 100 µM; in experiment [2], 10 to 100 µM; in experiment [3], above 100 µM.

Regarding `CN(C)CCCOc1ccc2c(N)noc2n1` [Compound 76, 6-(3-(Dimethylamino)propoxy)isoxazolo[5,4-b]pyridin-3-amine], the IC50 in experiment [1], in experiment [2] and in experiment [3] was above 100 µM each time.

On to `Nc1noc2nc(Oc3cccc(C(F)(F)F)c3)ccc12` [Compound 93, 6-(3-(Trifluoromethyl)phenoxy)isoxazolo[5,4-b]pyridin-3-amine], for which the IC50 in experiment [1] was above 100 µM; in experiment [2], 10 to 100 µM; in experiment [3], above 100 µM.

With `Nc1noc2nc(-c3ccco3)ccc12` [Compound 58, 6-(Furan-2-yl)isoxazolo[5,4-b]pyridin-3-amine], the IC50 in experiment [1] is above 100 µM; in experiment [2] it was 1 to 10 µM; in experiment [3], above 100 µM.

As to `CNc1noc2nc(C)c(Cl)c(C)c12` [Compound 20, 5-Chloro-N^3,4,6-trimethylisoxazolo[5,4-b]pyridin-3-amine], the IC50 was above 100 µM in experiment [1], 10 to 100 µM in experiment [2] and above 100 µM in experiment [3].

For `Nc1noc2nc(C(=O)O)ccc12` [Compound 81, 3-Aminoisoxazolo[5,4-b]pyridine-6-carboxylic acid], the half-maximal inhibitory concentration (IC50) in experiment [1], in experiment [2] and in experiment [3] was above 100 µM in each case.

Take `Nc1noc2ncc([N+](=O)[O-])cc12` [Compound 49, 5-Nitroisoxazolo[5,4-b]pyridin-3-amine]: the IC50 in experiment [1] is 1 to 10 µM; in experiment [2], below 1 µM; in experiment [3], above 100 µM.

For the compound `Cc1ncc2c(N)noc2n1` [Compound 64, 6-Methylisoxazolo[5,4-d]pyrimidin-3-amine], the IC50 in experiment [1] was above 100 µM; in experiment [2] it was 10 to 100 µM; in experiment [3] it was above 100 µM.

Regarding `Nc1noc2nc(-c3ccc(F)cc3F)ccc12` [Compound 73, 6-(2,4-Difluorophenyl)isoxazolo[5,4-b]pyridin-3-amine], the IC50 in experiment [1] was above 100 µM; in experiment [2], 10 to 100 µM; in experiment [3], above 100 µM.

On to `Nc1noc2nc(-c3ccc(F)cc3)ccc12` [Compound 71, 6-(4-Fluorophenyl)isoxazolo[5,4-b]pyridin-3-amine], for which the IC50 in experiment [1] was above 100 µM; in experiment [2], 10 to 100 µM; in experiment [3], above 100 µM.

On to `CN(C)c1nc2onc(N)c2cc1F` [Compound 57, 5-Fluoro-N6,N6-dimethylisoxazolo[5,4-b]pyridine-3,6-diamine], for which the IC50 in experiment [1], in experiment [2] and in experiment [3] was above 100 µM in each case.
